US20240165226A1, “COMBINATION TREATMENT OF CD38-EXPRESSING TUMORS” (GENMAB A/S, priority 2006, published 2024)

Tests used:
Daudi-luc cells = assay: Binding to Daudi-luc cells by flow cytometry; details: for binding to Daudi-luc cells: in words
Procedure: After harvesting and counting, Daudi-luc cells, CHO cells transfected with CD38 and control CHO cells were resuspended in PBS (1×10^6 cells/ml). Then, cells were put in 96-well V-bottom plates (100 μl/well) and washed twice in PBS-BSA (PBS supplemented with 0.1% BSA and 0.02% Na-azide). Thereafter, 50 μl antibody solution in PBS-BSA was added to the cells (4° C., 30 min). After washing three times in PBS-BSA, 50 μl (1:400 dilution) of rabbit anti-human IgG-FITC in PBS-BSA was added (4° C. in the dark, 30 min). Cells were washed three times and specific binding of CD38-antibodies to CHO-CD38 and Daudi-luc cells was detected by flow cytometry. HuMab-KLH (a human monoclonal antibody against KLH (keyhole limpet haemocyanin) generated by Genmab B.V., Utrecht, The Netherlands by use of the immunization protocols described elsewhere herein) was used as a control. […] No binding to control CHO cells is observed (data not shown).

[1] = test system: fresh multiple myeloma tumor cells; assay: ADCC (51Cr release) of fresh multiple myeloma tumor cells; assay type: cell-based, human; details: in words
Procedure: Daudi-luc cells, fresh multiple myeloma tumor cells, fresh Plasma Cell Leukemia tumor cells and JK6L and AMO-1 multiple myeloma cells were collected (5×10^6 cells) in RPMI^++ (RPMI 1640 culture medium supplemented with 10% cosmic calf serum (HyClone, Logan, UT, USA)), to which 100 μCi ^51Cr (Chromium-51; Amersham Biosciences Europe GmbH, Roosendaal, The Netherlands) was added, and the mixture was incubated in a 37° C. water bath for 1 hr. After washing of the cells (twice in PBS, 1500 rpm, 5 min), the cells were resuspended in RPMI^++ and counted by trypan blue exclusion. Cells were brought at concentration of 1×10^5 cells/ml.
Fresh peripheral blood mononuclear cells (healthy volunteers, UMC Utrecht, Utrecht, The Netherlands) were isolated from 40 ml of heparin blood by Ficoll (Bio Whittaker; lymphocyte separation medium, cat 17-829E) according to the manufacturer's instructions. After resuspension of cells in RPMI^++, cells were counted by trypan blue exclusion and brought at concentration of 1×10^7 cells/ml.
50 μl of ^51Cr-labeled targets cells were pipetted into 96-well plates, and 50 μl of antibody was added, diluted in RPMI^++ (final concentrations 10, 1, 0.1, 0.01 μg/ml). […] After spinning down cells (1500 rpm, 5 min), 100 μl of supernatant was harvested into micronic tubes, and counted in gamma counter. The percentage specific lysis was calculated as follows: […]

fresh MM tumor cells = assay: Binding to fresh multiple myeloma tumor cells by flow cytometry; set-up: species or system human; details: for binding to MM cells: in words
Procedure: Fresh MM tumor cells were obtained from Dr. Lokhorst (University Medical Center Utrecht, Utrecht, The Netherlands. Tumor cells were isolated from bone marrow of multiple myeloma patients by Ficoll (Bio Whittaker; lymphocyte separation medium, cat 17-829E) gradient centrifugation. After harvesting and counting, MM cells (100,000 cells/well) were resuspended with 25 μl FITC-labeled CD38-specific antibodies and 25 μl CD138. After incubation (4° C., 30 min), cells were washed in PBS-BSA and PE-labeled goat-anti-mouse IgG (1:200; Jackson ImmunoResearch Europe Ltd. Soham, UK) was added. After incubation (4° C., 30 min) and washing of the cells in PBS-BSA, fluorescence was measured by flow cytometry.

PBMCs = assay: Induction of release of IFN-γ by PBMC; assay type: cell-based, human; details: 20 μg/ml antibody and 1 μg/ml OKT-3, 9 donors
Procedure: -003, -005 and -024 were tested in an assay as described in Ausiello et al., Tissue antigens 56, 538-547 (2000). Briefly, PBMCs were cultured at 1×10^6 cells/well in 48-well plates in the presence of 20 μg/ml of antibodies and 1 μg/ml OKT-3 (Sanquin, Amsterdam, The Netherlands) in 500 μl RPMI^++. After an O/N incubation at 37° C., supernatant was harvested and stored at −20° C. The IFN-γ concentration was assessed by ELISA (IFN-γ ELISA kit, U-CyTech Biosciences, Utrecht, The Netherlands) according to the manufacturer's instructions. Data are shown mean concentration in pg/ml (±SEM) from 9 donors.

wt human CD38 = target: T1, wt human CD38 (Homo sapiens, UniProt P28907); assay: ELISA binding to wild type HA-CD38
T1 construct: The extracellular domain of human CD38 was amplified from plasmid pCIpuroCD38; signal peptide SPHMM (N); made in house; host or cells: Freestyle 293-F (HEK-293F), transient; culture supernatant used
Procedure: Freestyle™ 293-F (a HEK-293 subclone adapted to suspension growth and chemically defined Freestyle medium, (HEK-293F)) cells were obtained from Invitrogen and transfected with pEE13.4HACD38 and with the three constructs carrying the mutations T237A, Q272R and S274F, according to the manufacturer's protocol using 293fectin (Invitrogen). Culture supernatants of transfected cells were used in ELISA for anti-CD38 binding studies.
Culture supernatants of transfected HEK293F cells were diluted, applied to the ELISA plates and incubated for 1 hr at RT. After washing, serial dilutions of HuMabs -003 and -005 were added and incubated for 1 hr at RT. Bound antibodies were detected with HRP-conjugated goat-anti-human IgG antibodies. The assay was developed with ABTS (Roche, #1112597) and the absorbance was measured at 405 nm using a spectrophotometer.

Question: Which results are given for “-005: human monoclonal IgG1 anti-CD38 antibody, VL region SEQ ID No:12 and VH region SEQ ID No:17”?
Answer: EC50 Daudi-luc (Daudi-luc cells; binding, flow cytometry): 0.09 µg/mL; binding to Daudi-luc cells (Daudi-luc cells): bind; ADCC of fresh multiple myeloma tumor cells [1]: ADCC is induced; EC50 MM cells (fresh MM tumor cells; binding, flow cytometry): 0.04 µg/mL; binding to MM cells (fresh MM tumor cells): bind; release of IFN-γ (PBMCs): does not induce release of detectable IFN-γ levels; binding to wt human CD38 (wt human CD38): bind

B1: -024: human monoclonal IgG1 anti-CD38 antibody, VL region SEQ ID No:22 and VH region SEQ ID No:27 (antibody, listed as Homo sapiens, V domains shown)
VH: EVQLVQSGAEVKKPGESLKISCKGSGYSFSNYWIGWVRQMPGKGLEWMGIIYPHDSDARYSPSFQGQVTFSADKSISTAYLQWSSLKASDTAMYYCARHVGWGSRYWYFDLWGRGTLVTVSS
VL: EIVLTQSPATLSLSPGERATLSCRASQSVSSYLAWYQQKPGQAPGLLIYDASNRASGIPARFSGSGSGTDFTLTISSLEPEDFAVYYCQQRSNWPLTFGGGTKVEIK
Question: For B1, which “binding to Daudi-luc cells” value (Daudi-luc cells) is on record?
Answer: bind

Question: And the “ADCC of fresh multiple myeloma tumor cells” value [1]?
Answer: ADCC is induced

Question: What about the “binding to MM cells” value (fresh MM tumor cells) of the same molecule?
Answer: bind

Question: And the “release of IFN-γ” value (PBMCs)?
Answer: did not induce release of significant IFN-γ levels
